Activity calls are given as the source filed them. The rule behind the calls is not given here.
Legend:
[1] = Efflux ratio of permeability in human Caco2 cells; type: ADME, cell-based; details: Caco-2
[2] = biological target: T1, Sodium channel protein type 9 subunit alpha (Homo sapiens, UniProt Q15858); experiment: Inhibition of recombinant human Nav1.7 expressed in HEK293 cells at -70 mV holding potential by patch clamp electrophysiology method; type: cell-based
Cytochrome P450 2D6 [3] = biological target: T2, Cytochrome P450 2D6 (Homo sapiens, UniProt P10635); experiment: Time-dependant inhibition of CYP2D6 in human liver microsomes; type: ADME
T2 sequence (P10635 whole entry): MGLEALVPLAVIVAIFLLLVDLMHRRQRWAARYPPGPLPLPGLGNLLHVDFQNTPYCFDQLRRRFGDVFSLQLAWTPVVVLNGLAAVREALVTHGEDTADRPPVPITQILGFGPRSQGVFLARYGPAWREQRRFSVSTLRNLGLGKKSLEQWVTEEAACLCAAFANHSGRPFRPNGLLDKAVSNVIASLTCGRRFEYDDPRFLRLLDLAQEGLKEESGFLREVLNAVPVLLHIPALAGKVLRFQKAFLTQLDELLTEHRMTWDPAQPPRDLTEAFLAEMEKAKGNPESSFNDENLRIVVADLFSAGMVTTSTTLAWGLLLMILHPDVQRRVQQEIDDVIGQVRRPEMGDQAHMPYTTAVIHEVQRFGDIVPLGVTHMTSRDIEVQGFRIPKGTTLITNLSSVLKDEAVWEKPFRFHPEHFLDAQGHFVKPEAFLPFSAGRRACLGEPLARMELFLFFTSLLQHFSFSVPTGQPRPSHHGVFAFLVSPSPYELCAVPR

[4] = Fraction unbound in mouse plasma; type: ADME, cell-free
Cytochrome P450 3A4 [5] = biological target: T3, Cytochrome P450 3A4 (Homo sapiens, UniProt P08684); experiment: Inhibition of CYP3A4 in human liver microsomes; type: ADME; details: human, microsomes
T3 sequence (P08684 whole entry): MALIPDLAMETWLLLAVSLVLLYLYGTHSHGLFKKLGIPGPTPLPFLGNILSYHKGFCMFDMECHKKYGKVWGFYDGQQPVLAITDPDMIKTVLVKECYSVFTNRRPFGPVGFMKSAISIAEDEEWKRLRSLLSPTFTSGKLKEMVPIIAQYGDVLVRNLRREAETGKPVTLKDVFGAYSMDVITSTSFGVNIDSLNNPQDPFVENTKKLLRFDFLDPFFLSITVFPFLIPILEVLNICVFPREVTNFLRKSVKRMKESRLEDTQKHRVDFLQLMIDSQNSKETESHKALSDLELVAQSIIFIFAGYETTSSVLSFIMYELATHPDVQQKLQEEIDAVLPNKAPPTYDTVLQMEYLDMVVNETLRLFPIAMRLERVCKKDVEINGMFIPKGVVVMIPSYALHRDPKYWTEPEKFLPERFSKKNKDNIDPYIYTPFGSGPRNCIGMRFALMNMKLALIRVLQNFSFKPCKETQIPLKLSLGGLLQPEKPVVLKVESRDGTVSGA

Cytochrome P450 2C9 [6] = biological target: T4, Cytochrome P450 2C9 (Homo sapiens, UniProt P11712); experiment: Inhibition of CYP2C9 in human liver microsomes; type: ADME; details: human, microsomes
T4 sequence (P11712 whole entry): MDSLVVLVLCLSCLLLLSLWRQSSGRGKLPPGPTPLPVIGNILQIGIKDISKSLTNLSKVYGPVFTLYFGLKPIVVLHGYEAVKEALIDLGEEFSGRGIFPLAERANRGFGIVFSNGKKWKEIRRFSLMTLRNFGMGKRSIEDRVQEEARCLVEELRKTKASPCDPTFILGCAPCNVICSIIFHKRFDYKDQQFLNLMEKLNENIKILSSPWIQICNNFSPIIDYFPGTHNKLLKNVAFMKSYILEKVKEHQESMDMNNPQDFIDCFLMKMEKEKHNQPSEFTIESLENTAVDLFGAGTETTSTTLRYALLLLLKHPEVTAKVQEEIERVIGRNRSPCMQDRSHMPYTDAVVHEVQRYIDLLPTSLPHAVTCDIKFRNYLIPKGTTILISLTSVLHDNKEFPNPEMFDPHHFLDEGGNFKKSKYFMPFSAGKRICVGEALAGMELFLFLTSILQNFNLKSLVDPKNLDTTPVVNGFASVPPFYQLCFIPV

[7] = Metabolic stability in human liver microsomes assessed as parent compound remaining at 0.5 uM after 10 mins; type: ADME, Microsome; details: read-out: Stability
Cytochrome P450 2C19 [8] = biological target: T5, Cytochrome P450 2C19 (Homo sapiens, UniProt P33261); experiment: Inhibition of CYP2C19 in human liver microsomes; type: ADME; details: human, microsomes
T5 sequence (P33261 whole entry): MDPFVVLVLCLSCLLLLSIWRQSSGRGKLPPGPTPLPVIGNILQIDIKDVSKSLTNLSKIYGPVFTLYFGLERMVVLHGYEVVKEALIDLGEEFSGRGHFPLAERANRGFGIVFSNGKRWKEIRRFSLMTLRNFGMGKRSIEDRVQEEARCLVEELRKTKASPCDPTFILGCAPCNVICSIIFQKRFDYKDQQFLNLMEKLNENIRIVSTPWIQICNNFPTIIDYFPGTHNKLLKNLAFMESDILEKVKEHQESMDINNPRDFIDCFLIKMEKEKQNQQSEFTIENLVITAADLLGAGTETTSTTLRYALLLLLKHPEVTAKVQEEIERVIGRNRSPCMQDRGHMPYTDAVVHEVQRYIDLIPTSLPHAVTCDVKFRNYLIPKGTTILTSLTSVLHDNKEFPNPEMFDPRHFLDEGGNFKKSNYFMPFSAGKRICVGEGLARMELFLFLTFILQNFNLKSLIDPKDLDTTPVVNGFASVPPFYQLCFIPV

Cytochrome P450 2C8 [9] = biological target: T6, Cytochrome P450 2C8 (Homo sapiens, UniProt P10632); experiment: Inhibition of CYP2C8 in human liver microsomes; type: ADME; details: human, microsomes
T6 sequence (P10632 whole entry): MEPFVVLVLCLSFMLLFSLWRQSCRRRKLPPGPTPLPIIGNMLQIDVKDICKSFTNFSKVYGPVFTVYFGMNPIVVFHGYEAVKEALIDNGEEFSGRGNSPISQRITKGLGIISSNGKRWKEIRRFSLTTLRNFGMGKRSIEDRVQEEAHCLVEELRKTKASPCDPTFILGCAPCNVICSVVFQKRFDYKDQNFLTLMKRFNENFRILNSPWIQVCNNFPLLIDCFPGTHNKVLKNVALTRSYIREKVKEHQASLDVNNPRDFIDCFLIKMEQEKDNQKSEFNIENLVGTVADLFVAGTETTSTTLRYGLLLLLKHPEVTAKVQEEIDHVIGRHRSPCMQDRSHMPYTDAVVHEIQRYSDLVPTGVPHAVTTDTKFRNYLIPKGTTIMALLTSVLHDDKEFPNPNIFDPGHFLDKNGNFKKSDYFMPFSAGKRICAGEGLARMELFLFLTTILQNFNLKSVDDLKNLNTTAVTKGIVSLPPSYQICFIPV

[10] = Fraction unbound in human plasma; type: ADME, cell-free
[11] = Permeability from apical to basolateral side in human Caco2 cells; type: ADME, cell-based; details: Caco-2, read-out: permeability
[12] = Permeability of the compound at pH 5.5 by PAMPA; type: ADME; details: read-out: permeability
[13] = Permeability of the compound at pH 7.4 by PAMPA; type: ADME; details: read-out: permeability
Cytochrome P450 2C8 [14] = biological target: T6, Cytochrome P450 2C8; experiment: Time-dependant inhibition of CYP2C8 in human liver microsomes; type: ADME
Cytochrome P450 2C9 [15] = biological target: T4, Cytochrome P450 2C9; experiment: Time-dependant inhibition of CYP2C9 in human liver microsomes; type: ADME
Cytochrome P450 2D6 [16] = biological target: T2, Cytochrome P450 2D6; experiment: Inhibition of CYP2D6 in human liver microsomes; type: ADME; details: human, microsomes
Cytochrome P450 2B6 [17] = biological target: T7, Cytochrome P450 2B6 (Homo sapiens, UniProt P20813); experiment: Time-dependant inhibition of CYP2B6 in human liver microsomes; type: ADME
T7 sequence (P20813 whole entry): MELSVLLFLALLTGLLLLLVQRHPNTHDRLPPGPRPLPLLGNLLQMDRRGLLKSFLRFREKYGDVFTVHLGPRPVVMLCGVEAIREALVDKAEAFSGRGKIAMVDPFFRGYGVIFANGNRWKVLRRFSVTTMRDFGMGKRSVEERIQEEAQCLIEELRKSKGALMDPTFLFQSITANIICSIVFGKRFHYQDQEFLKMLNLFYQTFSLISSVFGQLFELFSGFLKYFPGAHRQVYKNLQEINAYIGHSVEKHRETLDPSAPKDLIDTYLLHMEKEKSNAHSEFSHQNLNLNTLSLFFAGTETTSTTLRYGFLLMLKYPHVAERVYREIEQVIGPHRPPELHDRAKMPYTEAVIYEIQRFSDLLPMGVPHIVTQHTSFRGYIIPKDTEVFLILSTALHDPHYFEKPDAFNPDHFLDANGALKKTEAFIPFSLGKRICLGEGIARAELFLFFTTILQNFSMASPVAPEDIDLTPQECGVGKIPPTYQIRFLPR

[18] = Permeability from basolateral to apical side in human Caco2 cells; type: ADME, cell-based; details: Caco-2, read-out: permeability
Cytochrome P450 3A4 [19] = biological target: T3, Cytochrome P450 3A4; experiment: Time-dependant inhibition of CYP3A4 in human liver microsomes; type: ADME
[20] = Metabolic stability in rat liver microsomes assessed as parent compound remaining at 0.5 uM after 10 mins; type: ADME, Microsome; details: read-out: Stability
Cytochrome P450 2C19 [21] = biological target: T5, Cytochrome P450 2C19; experiment: Time-dependant inhibition of CYP2C19 in human liver microsomes; type: ADME
Cytochrome P450 2B6 [22] = biological target: T7, Cytochrome P450 2B6; experiment: Inhibition of CYP2B6 in human liver microsomes; type: ADME; details: human, microsomes
[23] = Metabolic stability in mouse liver microsomes assessed as parent compound remaining at 0.5 uM after 10 mins; type: ADME, Microsome; details: read-out: Stability
[24] = Plasma concentration in CD1 mouse model of formalin-induced nociception at 30 mg/kg, po; type: ADME, organism-based; details: read-out: Cp, in vivo
[25] = Unbound plasma concentration in CD1 mouse model of formalin-induced nociception at 30 mg/kg, po; type: ADME, organism-based; details: in vivo
Mus musculus [26] = experiment: Analgesic activity in CD1 mouse model of formalin-induced nociception assessed as reduction in formalin-evoked paw flinching/licking response during first phase at 30 mg/kg, po pretreated for 30 mins followed by formalin treatment and measured during first 5 mins post formalin injection; type: functional, organism-based
[27] = Toxicity in CD1 mouse model of formalin-induced nociception assessed as hypothermia at 30 mg/kg, po; type: organism-based; details: in vivo
[28] = biological target: T8, Sodium channel protein type 9 subunit alpha (Mus musculus, UniProt Q62205); experiment: Inhibition of recombinant mouse Nav1.7 expressed in HEK293 cells at -70 mV holding potential by patch clamp electrophysiology method; type: cell-based
Mus musculus [29] = experiment: Analgesic activity in CD1 mouse model of formalin-induced nociception assessed as reduction in formalin-evoked paw flinching/licking response during second phase at 30 mg/kg, po pretreated for 30 mins followed by formalin treatment and measured during 15 to 45 mins post formalin injection; type: functional, organism-based
[30] = biological target: T8, Sodium channel protein type 9 subunit alpha; experiment: Inhibition of Nav1.7 in mouse DRG neurons at -70 mV holding potential by patch clamp electrophysiology method
[31] = Toxicity in CD1 mouse model of formalin-induced nociception assessed as prostration or sedation at 30 mg/kg, po; type: organism-based; details: in vivo
[32] = biological target: T1, Sodium channel protein type 9 subunit alpha; experiment: Inhibition of human Nav1.7 expressed in HEK293 cells after 600 secs at -60 mV holding potential by ion works barracuda population patch clamp method; type: cell-based

T1 sequence (Q15858 whole entry): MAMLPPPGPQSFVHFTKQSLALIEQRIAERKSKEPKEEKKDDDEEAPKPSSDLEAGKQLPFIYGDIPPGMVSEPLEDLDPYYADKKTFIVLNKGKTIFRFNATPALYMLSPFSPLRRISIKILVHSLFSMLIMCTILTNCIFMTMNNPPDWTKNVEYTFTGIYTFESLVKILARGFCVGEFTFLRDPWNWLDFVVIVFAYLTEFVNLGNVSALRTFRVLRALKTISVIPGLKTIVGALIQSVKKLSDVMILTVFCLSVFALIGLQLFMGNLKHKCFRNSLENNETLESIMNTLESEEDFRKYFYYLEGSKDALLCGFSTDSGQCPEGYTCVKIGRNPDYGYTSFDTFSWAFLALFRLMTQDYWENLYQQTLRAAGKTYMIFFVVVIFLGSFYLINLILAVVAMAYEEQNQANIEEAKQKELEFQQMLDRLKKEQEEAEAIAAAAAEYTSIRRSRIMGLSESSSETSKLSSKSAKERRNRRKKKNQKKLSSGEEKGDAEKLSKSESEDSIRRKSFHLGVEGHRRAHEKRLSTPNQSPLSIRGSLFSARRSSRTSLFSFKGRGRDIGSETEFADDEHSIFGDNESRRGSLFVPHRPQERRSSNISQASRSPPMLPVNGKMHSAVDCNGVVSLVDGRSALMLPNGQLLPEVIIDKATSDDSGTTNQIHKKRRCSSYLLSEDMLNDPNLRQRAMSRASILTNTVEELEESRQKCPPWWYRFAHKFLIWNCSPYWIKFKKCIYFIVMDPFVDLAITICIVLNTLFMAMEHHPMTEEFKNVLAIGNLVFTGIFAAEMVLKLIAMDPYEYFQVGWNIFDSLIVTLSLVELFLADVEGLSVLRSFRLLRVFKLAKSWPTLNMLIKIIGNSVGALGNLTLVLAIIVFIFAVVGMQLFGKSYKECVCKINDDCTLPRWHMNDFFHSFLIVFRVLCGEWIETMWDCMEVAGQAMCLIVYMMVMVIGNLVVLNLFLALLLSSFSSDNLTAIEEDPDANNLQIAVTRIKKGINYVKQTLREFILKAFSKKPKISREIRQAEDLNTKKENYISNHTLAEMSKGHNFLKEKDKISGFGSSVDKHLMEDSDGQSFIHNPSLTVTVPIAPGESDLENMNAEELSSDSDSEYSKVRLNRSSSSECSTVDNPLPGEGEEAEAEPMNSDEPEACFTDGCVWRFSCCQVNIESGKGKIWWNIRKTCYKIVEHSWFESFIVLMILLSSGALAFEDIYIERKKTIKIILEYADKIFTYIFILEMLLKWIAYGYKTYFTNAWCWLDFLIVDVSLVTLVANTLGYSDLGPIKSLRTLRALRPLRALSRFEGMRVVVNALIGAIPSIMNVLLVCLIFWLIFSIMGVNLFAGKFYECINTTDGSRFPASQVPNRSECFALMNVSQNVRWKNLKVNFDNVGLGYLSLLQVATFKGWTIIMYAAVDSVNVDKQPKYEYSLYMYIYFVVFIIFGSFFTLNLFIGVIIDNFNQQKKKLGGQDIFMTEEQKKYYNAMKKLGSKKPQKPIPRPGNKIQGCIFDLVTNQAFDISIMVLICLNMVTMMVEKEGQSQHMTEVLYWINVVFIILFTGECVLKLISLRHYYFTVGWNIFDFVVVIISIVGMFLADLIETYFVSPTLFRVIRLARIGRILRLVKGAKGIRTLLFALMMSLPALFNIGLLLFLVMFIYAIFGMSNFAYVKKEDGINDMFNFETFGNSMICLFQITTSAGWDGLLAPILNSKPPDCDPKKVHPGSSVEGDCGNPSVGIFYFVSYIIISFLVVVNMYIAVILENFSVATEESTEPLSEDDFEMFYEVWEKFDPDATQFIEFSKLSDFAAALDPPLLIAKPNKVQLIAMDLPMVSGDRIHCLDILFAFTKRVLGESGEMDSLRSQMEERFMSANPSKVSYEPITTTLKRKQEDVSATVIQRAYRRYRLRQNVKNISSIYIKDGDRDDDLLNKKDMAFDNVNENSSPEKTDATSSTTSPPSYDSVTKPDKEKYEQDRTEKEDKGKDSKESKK

efflux ratio [1]	IC50 [2] [nM]	TDI (Cytochrome P450 2D6 [3])	fraction unbound [4]	inhibition (INH) (Cytochrome P450 3A4 [5])	inhibition (INH) (Cytochrome P450 2C9 [6])	remaining at 10 min, 0.5 µM [7] [%]	inhibition (INH) (Cytochrome P450 2C19 [8])	inhibition (INH) (Cytochrome P450 2C8 [9])	fraction unbound [10]	Papp A→B [11] [×10⁻⁶ cm/s]	Papp [13] [×10⁻⁶ cm/s]	TDI (Cytochrome P450 2C8 [14])	TDI (Cytochrome P450 2C9 [15])	inhibition (INH) (Cytochrome P450 2D6 [16])	TDI (Cytochrome P450 2B6 [17])	Papp B→A [18] [×10⁻⁶ cm/s]	TDI (Cytochrome P450 3A4 [19])	remaining at 10 min, 0.5 µM [20] [%]	TDI (Cytochrome P450 2C19 [21])	SMILES	other results
6.1	13	Not Active	0.005	Not Active	Not Active	97	Not Active	Not Active	0.002	2	14	Not Active	Not Active	Not Active	Not Active	12.5	Not Active	99	Not Active	Cn1cc(-c2ccc(C(F)(F)F)cc2)c2cc(F)c(C(=O)NS(C)(=O)=O)cc21	Papp [12]: 71.2 ×10⁻⁶ cm/s; inhibition (INH) (Cytochrome P450 2B6 [22]): Not Active; remaining at 10 min, 0.5 µM [23]: 95%
1.6	19	Not Active	0.006	Not Active	Not Active	100	Not Active	Not Active	0.024	12	25.4	Not Active	Not Active	Not Active	Not Active	18.9	Not Active	78	Not Active	CC(C)COc1ccc(-c2cn(C)c3cc(C(=O)NS(=O)(=O)C4CC4)c(F)cc23)cn1	concentration [24]: 132 µM; Cp(f) [25]: 0.792 µM; Activity (Mus musculus [26]): inactive; Activity [27]: Non-Toxic; IC50 [28]: 37 nM; Papp [12]: 85.1 ×10⁻⁶ cm/s; Activity (Mus musculus [29]): inactive; IC50 [30]: 24 nM; inhibition (INH) (Cytochrome P450 2B6 [22]): Not Active; Activity [31]: Non-Toxic; remaining at 10 min, 0.5 µM [23]: 98%
> 5.1	96	Not Active	< 0.001	Not Active	Not Active	100	Not Active	Not Active	< 0.001	< 1.5	17.1	Not Active	Not Active	Not Active	Not Active	7.6	Not Active	74	Not Active	Cn1cc(-c2ccc(C(F)(F)F)cc2)c2ccc(C(=O)NS(C)(=O)=O)cc21	IC50 [32]: 88 nM; Papp [12]: 97.2 ×10⁻⁶ cm/s; inhibition (INH) (Cytochrome P450 2B6 [22]): Not Active; remaining at 10 min, 0.5 µM [23]: 54%
2.4	12	Not Active	0.007	Not Active	Not Active	93	Not Active	Not Active	0.003	8.1	6	Not Active	Not Active	Not Active	Not Active	19.5	Not Active	82	Not Active	Cn1cc(-c2ccc(C(F)F)cc2)c2cc(F)c(C(=O)NS(=O)(=O)C3CC3)cc21	concentration [24]: 173 µM; Cp(f) [25]: 1.211 µM; Activity (Mus musculus [26]): inactive; Activity [27]: Non-Toxic; IC50 [28]: 231 nM; Papp [12]: 32.5 ×10⁻⁶ cm/s; Activity (Mus musculus [29]): inactive; IC50 [30]: 12 nM; inhibition (INH) (Cytochrome P450 2B6 [22]): Not Active; Activity [31]: Non-Toxic; remaining at 10 min, 0.5 µM [23]: 86%
> 7.6	27	Not Active	0.002	Not Active	Not Active	97	Not Active	Not Active	< 0.001	< 1.5	39.1	Not Active	Not Active	Not Active	Not Active	11.4	Not Active	77	Not Active	Cn1cc(-c2cnc(OCC3CC3)c(Cl)c2)c2ccc(C(=O)NS(=O)(=O)C3CC3)cc21	IC50 [32]: 82 nM; inhibition (INH) (Cytochrome P450 2B6 [22]): Not Active; remaining at 10 min, 0.5 µM [23]: 93%
3.4	1.1	Not Active	0.002	Not Active	Not Active	100	Not Active	Not Active	0.001	2	20.5	Not Active	Not Active	Not Active	Not Active	6.7	Not Active	85	Not Active	CC(C)COc1ncc(-c2cn(C)c3cc(C(=O)NS(C)(=O)=O)c(F)cc23)cc1Cl	Papp [12]: 49.5 ×10⁻⁶ cm/s; inhibition (INH) (Cytochrome P450 2B6 [22]): Not Active; remaining at 10 min, 0.5 µM [23]: 100%
1.9	5	Not Active	0.0035	Not Active	Not Active	100	Not Active	Not Active	0.0025	4.6	32.3	Not Active	Not Active	Not Active	Not Active	8.6	Not Active	100	Not Active	Cn1cc(-c2ccc(C(F)(F)F)cc2)c2cc(F)c(C(=O)NS(=O)(=O)C3CC3)cc21	concentration [24]: 140 µM; Cp(f) [25]: 0.49 µM; Activity (Mus musculus [26]): inactive; Activity [27]: Non-Toxic; IC50 [28]: 27 nM; Papp [12]: 166 ×10⁻⁶ cm/s; Activity (Mus musculus [29]): inactive; IC50 [30]: 5 nM; inhibition (INH) (Cytochrome P450 2B6 [22]): Not Active; Activity [31]: Non-Toxic
